Values after ≈ are worked out from the molar mass of the structure shown. Values joined by “and” are separate entries in the source; they are usually repeats but may differ in a detail not shown here. Equal values may be shown once.
Assays:
[1] = test system: Trypanosoma cruzi; test: (§1) DNDI: Chagas in Vitro; format: functional, organism-based, Tulahuen C4 (LacZ)
[2] = test system: Trypanosoma cruzi; test: as §1; format: functional, Tulahuen C4 (LacZ)
[3] = DNDI: Cytotoxicity in vitro, against rat skeletal myoblast (L-6) cells; settings: L-6 cells (skeletal myoblasts), IC50
[4] = DNDI: Lipophilicity (gLogD) at pH 3; settings: buffer, pH 3, logD
[5] = DNDI: Lipophilicity (gLogD) at pH 7.4; settings: buffer, pH 7.4, logD
[6] = DNDI: Solubility in 0.01M HCl at pH 2 determined by nephelometry; settings: 0.01M HCl, pH 2, Kinetic
[7] = in vitro; settings: human, microsomes
[8] = in vitro; settings: human, microsomes, t (1 / 2)
[9] = biological target: Cytochrome P450 3A4 (Homo sapiens, UniProt P08684); test: DNDI: Human CYP3A4 inhibition determined using 6b-hydroxylation of testosterone
Chain of Cytochrome P450 3A4 (P08684 whole entry): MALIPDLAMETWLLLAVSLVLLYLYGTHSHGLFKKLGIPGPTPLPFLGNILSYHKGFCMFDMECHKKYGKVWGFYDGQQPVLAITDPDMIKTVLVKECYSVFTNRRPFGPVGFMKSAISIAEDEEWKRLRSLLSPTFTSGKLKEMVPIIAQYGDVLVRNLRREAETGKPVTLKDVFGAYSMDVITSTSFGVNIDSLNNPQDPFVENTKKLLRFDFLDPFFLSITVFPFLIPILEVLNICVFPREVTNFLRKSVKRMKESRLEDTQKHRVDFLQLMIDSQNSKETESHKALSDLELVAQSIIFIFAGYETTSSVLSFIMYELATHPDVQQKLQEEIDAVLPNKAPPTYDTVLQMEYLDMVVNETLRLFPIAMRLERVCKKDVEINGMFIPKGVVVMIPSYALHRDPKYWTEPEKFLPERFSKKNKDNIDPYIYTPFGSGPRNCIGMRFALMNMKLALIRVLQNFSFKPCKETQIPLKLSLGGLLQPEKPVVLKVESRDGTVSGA

[10] = test system: Trypanosoma brucei rhodesiense; test: DNDI: HAT in Vitro; format: functional, organism-based, ATCC 30027; settings: Trypanosoma brucei, ATCC 30027
[11] = DNDI: Solubility in phosphate buffer at pH 6.5 determined by nephelometry; settings: phosphate buffer, pH 6.5, Kinetic
[12] = in vitro; settings: human, microsomes, EH
[13] = test system: Trypanosoma cruzi; test: DNDI: Chagas in vivo at 20 mg/kg, 20 days 2x; format: functional, Tulahuen Swiss po
[14] = Trypanosoma cruzi, Tulahuen C4 (LacZ)

Row | SMILES | IC50 [1, 14] | IC90 [2, 14] | IC50 [3] | chromatographic logD [4] | chromatographic logD [5] | solubility kinetic [6] | microsomal CLint [7] | half-life [8] | IC50 [9] | IC50 [10] | solubility kinetic [11] | hepatic extraction ratio [12] | IC50 [1] | IC90 [2] | PCR cure rate [13]
1 | Cc1ccc(-n2ccnc2)c(NC(=O)c2cnc(-c3ccccc3)s2)c1 | 1.98 nM | 15 nM | 86600 nM | 1.8 | 3 | > 100 µg/mL | 109 µL/min/mg | 16 min |  |  |  |  |  |  | 
2 | O=C(NCCc1cnc[nH]1)c1ccc2cc(Br)ccc2c1 | 186 nM | > 1000 nM | 59700 nM |  |  | 64.3 µg/mL (≈ 187 µM) | 16.5 µL/min/mg | 105 min | 3280 nM | > 10000 nM | 48.2 µg/mL (≈ 140 µM) |  |  |  | 
3 | CCN(Cc1cccnc1)c1ccc(-c2nc3ccccc3s2)cc1 | 351 nM | 632 nM | 54500 nM |  |  |  |  |  |  |  |  |  |  |  | 
4 | CCN(Cc1cccnc1)c1cncc(-c2nc3ccccc3s2)c1 | 171 nM | 354 nM | 31800 nM | 1.56 | 3.67 | 66.3 µg/mL (≈ 191 µM) | 414 µL/min/mg | 4.2 min | 790 nM | > 10000 nM | 3.52 µg/mL (≈ 10.2 µM) | 0.953 |  |  | 
5 | CCN(Cc1cccnc1)c1cccc(-c2nc3ccccc3s2)c1 |  |  | 41900 nM | 4.1 | 4.9 | > 100 µg/mL | 159 µL/min/mg | 11 min | 1000 nM | > 10000 nM | < 1.6 µg/mL | 0.86 |  |  | 
6 | CCN(Cc1cnc[nH]1)c1cc(F)cc(-c2nc3ccccc3s2)c1 | 51 nM |  |  | 1.98 | 4.67 | > 70.5 µg/mL | 138 µL/min/mg | 12.4 min | 576 nM |  | 3.1 µg/mL (≈ 8.8 µM) | 0.874 | 48 nM | 51 nM and 110 nM | 
7 | CO/N=C(\C)c1ccc(-n2ccnc2)c(NC(=O)c2cnc(-c3ccccc3)s2)c1 | 0.617 nM | 3 nM |  |  |  |  |  |  |  | > 10000 nM |  |  | 0.9 nM | 2.77 nM | 0%
8 | O=C(NCCc1c[nH]cn1)c1ccc(-c2ccccc2)cc1 | 306 nM |  | > 100000 nM |  |  |  |  |  |  |  |  |  |  |  | 
9 | CCN(CC)S(=O)(=O)c1ccc(-n2ccnc2)c(NC(=O)c2cnc(-c3ccccc3)nc2)c1 |  |  | > 100000 nM | 2.7 | 3.2 | 50 µg/mL (≈ 105 µM) | 166 µL/min/mg | 10 min | 20000 nM | > 10000 nM | 1.6 µg/mL (≈ 3.36 µM) | 0.9 | 6.5 nM and 0.8 nM | 23.5 nM and 8.03 nM | 
10 | CCN(Cc1cccnc1)c1ccc(-c2ccc(F)cc2)cc1F | 17 nM | 82.5 nM | 56300 nM | 3.49 | > 4.5 | 59.5 µg/mL (≈ 183 µM) | 80.5 µL/min/mg | 21.5 min | 1000 nM |  | < 0.32 µg/mL | 0.799 |  |  | 
11 | CC(C)Cc1ccc(-n2ccnc2)c(NC(=O)c2cnc(-c3ccccc3)s2)c1 | < 0.14 nM |  |  | 2.8 | 3.9 | > 100 µg/mL | 157 µL/min/mg | 11 min |  |  | < 1.6 µg/mL |  | 0.22 nM and 0.2 nM and 0.19 nM |  | 
12 | CS(=O)(=O)N(Cc1cccnc1)c1ccc(-c2ccc(F)cc2)cc1F | 2 nM |  |  | 1.89 | 3.18 | > 74.9 µg/mL | 218 µL/min/mg | 7.9 min | 612 nM |  | 8.62 µg/mL (≈ 23 µM) | 0.916 | 1 nM | 14.6 nM and 6 nM | 
13 | CS(=O)(=O)c1ccc(-n2ccnc2)c(NC(=O)c2cnc(-c3ccccc3)s2)c1 | 59.7 nM | > 100 nM | > 100000 nM |  |  |  |  |  |  |  |  |  |  |  | 
14 | NCC(=O)N(Cc1cccnc1)c1ccc(-c2nc3ccccc3s2)cc1 | 17 nM |  |  |  |  |  |  |  |  |  |  |  |  | 64 nM and 625 nM | 
15 | CO/N=C(\C)c1ccc(-n2ccnc2)c(NC(=O)c2sc(-c3ccccc3)nc2C)c1 | 67.5 nM | 204 nM | > 100000 nM | 2.3 | 3.5 | > 100 µg/mL | 18 µL/min/mg | 97 min |  |  |  |  |  |  | 
16 | Cl.NCC(=O)N(Cc1cccnc1)c1ccc(-c2nc3ccccc3s2)cc1 |  |  |  |  |  |  |  |  |  |  |  |  |  |  | 20%
17 | CCN(Cc1cccnc1)c1cc(F)cc(-c2nc3ccccc3s2)c1 | 47 nM | 98 nM | 57700 nM | 3.75 | > 4.5 | 57.2 µg/mL (≈ 157 µM) | 179 µL/min/mg | 9.7 min | 775 nM |  | < 0.36 µg/mL | 0.898 |  |  | 
18 | CO/N=C(\C)c1ccc(-n2ccnc2)c(NC(=O)c2cc(-c3ccccc3)cs2)c1 |  |  | > 100000 nM |  |  |  |  |  |  |  |  |  |  |  | 

— ChEMBL document CHEMBL2448688, “Selection and optimization of hits from a high-throughput phenotypic screen against Trypanosoma cruzi. Exported from HEOS 25-Oct-2013. See also related datasets CHEMBL3137440 and CHEMBL3137386”
